Results published in ChEMBL document CHEMBL5331104, “Discovery of BRD4-HDAC Dual Inhibitors with Improved Fungal Selectivity and Potent Synergistic Antifungal Activity against Fluconazole-Resistant Candida albicans” (J Med Chem, 2023).
Converted amounts (≈) assume the structure as drawn. The source made the active and inactive calls. No cut-off for these calls is given here.

How the values were obtained:
Nakaseomyces glabratus [1] = experiment: Antifungal activity against Candida glabrata 4408 assessed as microbial growth inhibition; type: functional
Candida albicans [2] = experiment: Antifungal activity against Candida albicans SC5314 assessed as fungal growth inhibition incubated for 24 hrs by broth dilution method; type: functional
Candida albicans [3] = experiment: Synergetic antifungal activity against Candida albicans 0304103 assessed as microbial growth inhibition incubated for 24 hrs in the presence of (S)-4-(2-(6-(4-Chloropheny1)-1-methy1-4H-benzo(f)(1,2,4)-triazolo(4,3-a)[1,4]diazepin-4-yl)acetamido)methyl)-N-hydroxybenzamide by checkerboard microdilution method; type: functional
Candida albicans [4] = experiment: Synergetic antifungal activity against Candida albicans 0304103 assessed as microbial growth inhibition incubated for 24 hrs in the presence of SAHA by checkerboard microdilution method; type: functional
[Candida] auris = Antifungal activity against Candida auris 0029 assessed as microbial growth inhibition; type: functional; conditions: Candidozyma auris
Candida albicans [5] = experiment: Antifungal activity against Candida albicans 10061 assessed as microbial growth inhibition; type: functional
Candida albicans [6] = experiment: (§1) Synergetic antifungal activity against Candida albicans 9172 assessed as microbial growth inhibition incubated for 24 hrs in the presence of (S)-4-((2-(6-(4-Chlorophenyl)-1-methyl-7,8,9,10-tetrahydro-4H-benzo-(4,5)thieno[3,2-f][1,2,4]triazolo(4,3-a)(1,4)diazepin-4-yl)-acetamido)-methyl)-N-hydroxybenzamide by checkerboard microdilution method; type: functional
Candida albicans [7] = experiment: as §1, with “10061” for “9172”; type: functional
Nakaseomyces glabratus [8] = experiment: as §1, with “glabrata 4408” for “albicans 9172”; type: functional
Cryptococcus neoformans = experiment: as §1, with “Cryptococcus neoformans 011405” for “Candida albicans 9172”; type: functional
Candida albicans [9] = experiment: Antibiofilm activity against FLC-resistant Candida albicans 0304103 assessed as inhibition of biofilm formation at 64 ug/mL incubated for 24 hrs by XTT reduction assay; type: functional, organism-based; conditions: dose 64.0 µg/ml
Candida albicans [10] = experiment: Downregulation of ADH5 expression in Candida albicans 0304103 at 32 ug/mL incubated for 24 hrs by RT q-PCR analysis; type: functional; conditions: dose 32.0 µg/ml

SMILES: OC(Cn1cncn1)(Cn1cncn1)c1ccc(F)cc1F [FLUCONAZOLE]
- MIC80 (Nakaseomyces glabratus [1]): 64 µg/mL (≈ 209 µM)
- MIC80 (Candida albicans [2]): 0.5 µg/mL (≈ 1.63 µM)
- MIC80 (Candida albicans [3]): 2 µg/mL
- MIC80 (Candida albicans [4]): 4 µg/mL
- MIC80 ([Candida] auris): > 64 µg/mL
- MIC80 (Candida albicans [5]): > 64 µg/mL
- MIC80 (Candida albicans [6]): 0.5 µg/mL
- MIC80 (Candida albicans [7]): 1 µg/mL
- MIC80 (Nakaseomyces glabratus [8]): 2 µg/mL
- MIC80 (Cryptococcus neoformans): 2 µg/mL
- Activity (Candida albicans [9]): inactive
- Activity (Candida albicans [10]): inactive
